Test results: patent US6444806B1, “Conjugates and methods of forming conjugates of oligonucleotides and carbohydrates” (Hisamitsu Pharmaceutical Co., Inc., priority 1996, dated 2002)
{Sucrose} = sucrose through a 1,5-bis(succinimidooxycarbonyloxy)pentane crosslinker

Legend:
[1] = Nuclease degradation assay in heat-inactivated 10% fetal bovine serum; assay type: in vitro ADME; settings: phosphodiester oligonucleotides, up to 24 hours at 37° C. (FIG. 4)
Procedure: (§1) Electrophoresis was performed using 20% polyacrylamide gels containing […], 90 mM Tris-borate (pH 8.3), 2 mM EDTA, 0.02% ammonium persulfate, and 15 μl tetraethylediamine (TEMED). Samples were dissolved in gel-loading buffer (10 M urea, 1.5 mM EDTA, 0.05% xylene cyanol, and 0.05% bromophenol blue) and heated at 90° C. for 1 minute and chilled before application to polyacrylamide gels.
Radiolabeled oligonucleotide (30,000 CPM) was incubated in RPMI-1640 medium (GIBCO-BRL, Grand Island, N.Y.) containing 10% heat-inactivated fetal bovine serum at 37° C. Samples were removed at various times, mixed with gel-loading buffer, and frozen at −20 C. Samples were analyzed by polyacrylamide gel electrophoresis followed by autoradiography of the wet gel at −70° C.

[2] = system: RNA complementary to the oligonucleotide; assay: RNase H assay (RNA-DNA heteroduplex formation); assay type: biochemical; settings: Escherichia coli RNase H, 10 or 30 minutes, room temperature (FIG. 6)
Procedure: Radiolabeled oligonucleotide (30,000 CPM) was annealed to complementary RNA by incubation in 20 mM Tris-HCl (pH 7.5), 0.1 M KCl, 10 mM MgCl2, and 0.1 mM ATP in 10 μl for 5 minutes at 65° C. followed by slow cooling to room temperature. One unit of Escherichia coli RNase H was added and incubation at room temperature was continued for either 10 minutes or 30 minutes. After incubation, 5 μl of gel-loading buffer were added, and all samples were analyzed by polyacrylamide gel electrophoresis followed by autoradiography of the wet gel at −70° C.
Unconjugated and sucrose-conjugated phosphodiester and phosphorothioate oligonucleotides were tested for their ability to form stable RNA-DNA heteroduplexes by determining RNA susceptibility to degradation by RNase H. RNA complementary to the oligonucleotide was labeled at the 5′-end using γ-^32P-ATP and T4 polynucleotide kinase. Radiolabeled RNA was hybridized to either unconjugated phosphodiester, sucrose-conjugated phosphodiester, unconjugated phosphorothioate, or sucrose-conjugated phosphorothioate oligonucleotide. Heteroduplex formation was assayed by incubation with RNase H for either 10 minutes or 30 minutes.

Exonuclease-1 = target: T1, Exonuclease-1 (Escherichia coli, UniProt P04995); assay type: in vitro ADME; settings: 0.5 or 1.0 unit Exonuclease-1, 30 minutes at 37° C., gel autoradiography (FIG. 3)
T1 sequence (P04995 1-475): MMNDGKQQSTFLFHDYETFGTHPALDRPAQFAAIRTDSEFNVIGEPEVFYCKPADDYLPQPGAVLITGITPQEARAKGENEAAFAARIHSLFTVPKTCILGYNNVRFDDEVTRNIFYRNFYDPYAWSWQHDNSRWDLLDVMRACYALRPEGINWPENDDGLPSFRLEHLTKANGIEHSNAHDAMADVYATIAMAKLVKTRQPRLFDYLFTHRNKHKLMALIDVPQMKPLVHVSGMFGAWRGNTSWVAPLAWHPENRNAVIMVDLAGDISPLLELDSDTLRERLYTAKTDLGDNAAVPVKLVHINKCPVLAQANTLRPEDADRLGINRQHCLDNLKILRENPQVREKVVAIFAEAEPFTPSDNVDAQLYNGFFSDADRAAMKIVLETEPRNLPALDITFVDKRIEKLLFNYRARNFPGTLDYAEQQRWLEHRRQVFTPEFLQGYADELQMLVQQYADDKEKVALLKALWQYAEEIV
Procedure: as §1
Radiolabeled oligonucleotide (30,000 CPM) was incubated with either 0.5 or 1.0 unit of Exonuclease-1 in 67 mM glycine (pH 9.5), 10 mM 2-mercaptoethanol, and 6.7 mM MgCl2 in 20 μl for 30 minutes at 37° C. After incubation, 5 μl of gel-loading buffer were added. All reactions were analyzed by polyacrylamide gel electrophoresis followed by autoradiography of the wet gel at −70° C.

Substance	degradation in heat-inactivated 10% fetal bovine serum [1]	RNA susceptibility to degradation by RNase H (stable RNA-DNA heteroduplex formation) [2]	degradation by Exonuclease-1 (Exonuclease-1)
sucrose-conjugated phosphodiester oligonucleotide: 19-mer phosphodiester oligonucleotide (Sequence ID No. 1) coupled at 3′-end to sucrose via crosslinker 1,5-bis(succinimidooxycarbonyloxy)pentane (GCTTCTGTGCTCATGGTCT; all phosphodiester, 3' {Sucrose}, sugars by position and methylation of C not given here; further chemistry not fully specified)	relatively resistant to degradation	degraded by RNase H	only negligible degradation
unconjugated phosphodiester oligonucleotide: phosphodiester oligonucleotide, 19 nucleotides in length, sequence of Sequence ID No. 1, unconjugated control (GCTTCTGTGCTCATGGTCT; all phosphodiester, sugars by position and methylation of C not given here)	highly susceptible to degradation	degraded by RNase H	degraded nearly completely
